Patent US8858952B2, “Methods and materials for generating T cells” (Mayo Foundation for Medical Education and Research, priority 2009, dated 2014)
Entries after “also recorded” stand apart in the source; their conditions may differ. Where no end group is shown, it is not given here. [ ]: non-standard residue; d: D form. Ava = NCCCCC(=O)O

What was measured:
bone marrow-derived DC = experiment: Cytokine and chemokine multiplex analysis of DC culture supernatant; type: cell-based; details: DC culture media 48 hours after pulsing, versus native FR74
Experimental: FIG. 14. […] Shown are the concentrations of cytokines within DC culture media 48 hours after pulsing with the indicated polypeptides. Each bar is the mean (±s.e.m.) of duplicates samples. A repeat experiment yielded similar results.
FIG. 15. […] Shown are the concentrations of chemokines within DC culture media 48 hours after pulsing with the indicated polypeptides. Each bar is the mean (±s.e.m.) of duplicate samples. A repeat experiment yielded similar results.
FIG. 24. Modified polypeptides induce different release of IL-6 and IL-12p70. Shown are the concentrations of IL-6 and IL-12p70 within DC culture media 48 hours after pulsing with the indicated polypeptides. Each bar is the mean (±s.e.m.) of duplicate samples. A repeat experiment yielded similar results. Values associate with each bar are the actual mean concentrations measured.
Another potential reason for the enhanced T cell activation is that epitope nesting results in enhancement of cytokines that facilitate the induction of T cell activation. […]
This hypothesis is tested using antibody neutralization. […] Cytokine levels in the sera are quantitated by analyzing 100 μL of each well on a Bio-Plex using Bio-Plex Manager software (ver.4.). […] Both the DC and the T cells can be assessed for expression of the receptors using flow cytometry. […]

splenocytes = experiment: Immunization with polypeptide-pulsed DC, splenocyte proliferation; type: in vivo, FVB/N mice; details: DC pulsed 2 hours; splenocytes at 1 week; FIG. 30
Experimental: FIG. 30. DC pulsed with modified polypeptides are more immunogenic than FR74-pulsed DC. […] Control=DC pulsed with media.
Alternatively, the strategies developed herein can be applied to other fields of immunotherapy. […] In that experiment, bone-marrow derived DC were pulsed with either PBS, FR74 peptide, or FR74.4 peptide for 2 hours. The DC were washed and injected into FVB/N mice.

ovarian tumor = experiment: Vaccination of ovarian tumor-bearing mice with native or nested epitope; type: in vivo; details: spleens and lymph nodes, day 50; FIGS. 32, 33
Experimental: Each bar is the mean of three mice, each done in triplicate. P values, comparing FR74-specific responses, were calculated using Tukey-Kramer Multiple Comparisons test.
Each bar is the mean of 3 mice, each done in triplicate. P values, comparing FR74-specific responses or tumor weights, were calculated using Tukey-Kramer Multiple Comparisons test.
Mice were implanted with ovarian tumor and 10 days later were treated with PBS, native epitope FR74 (2150 μg/kg in 100 μL injected at the base of the tail), or nested epitope FR74.4 (5000 μg/kg in 100 μL injected at the base of the tail) over the course of a week. On day 50, the mice were sacrificed and spleen, lymph node, and tumor tissue was harvested. T cell responses and tumor weights were then estimated. The number of FR74-specific T cells in the spleens and lymph nodes was determined (FIG. 32). T cells were estimated using an IFN-γ ELIspot assay testing responses against native FR74 (black bars) or an irrelevant peptide (white bars). In addition, the proliferation of T cells, in response to native FR74 (black bars) or an irrelevant peptide (white bars), was measured in the spleens and lymph nodes (FIG. 33). T cell proliferation was estimated using a tritiated thymidine assay.
In addition, the weight of the greater omentum (a surrogate of total tumor burden) 50 days following last immunization was measured (FIG. 34C).

FR74.4: dual conjugated polypeptide: FR74 nested between Ii-key and DC3 (Ac-LRMK[Ava]KDISYLYRFNWNHCGRARRFYPSYHSTPQRP)
cytokine release by DC (bone marrow-derived DC; FIG. 14): selectively induces expression of IL-1α, IL-6, IL-12p70, IL-13 and TNF-α; also recorded: enhanced the release of IL-1α, IL-6, and IL-12p70 | chemokine levels produced by DC (bone marrow-derived DC; FIG. 15): significantly higher levels of the T cell attracting chemokines, CCL7 (MCP-3), CCL1 (KC) CXCL10 (IP-10); also recorded: elevated levels of CCL7, CXCL1, and CXCL10 | splenocyte proliferation in response to native FR74 antigen after DC immunization (splenocytes): significantly elevated proliferative response | immunogenicity as vaccine in tumor bearing mice (IFN-γ ELIspot and proliferation) (ovarian tumor): more immunogenic than native epitopes
